Key:
Format in all cases: biochemical
Details in all cases: 1 μM inhibitor concentration
[1] = biological target: RSK1 (Homo sapiens (Human), UniProt Q15418); assay: RSK1 kinase selectivity assay
Description: MAPKAP-K1a (5-20 mU diluted in 20 mM MOPS pH 7.5, 1 mM EDTA, 0.01% Brij35, 5% glycerol, 0.1% b-mercaptoethanol, 1 mg/ml BSA) is assayed against […] in a final volume of 25.5 μl containing 50 mM Na-b-glycerophosphate pH 7.5, 0.5 mM EDTA, 30 μM substrate peptide, 10 mM magnesium acetate and 0.05 mM [33P-g-ATP] (50-1000 cpm/pmole) and incubated for 40 min at room temperature. Assays are stopped by addition of 5 μl of 0.5 M (3%) orthophosphoric acid and then harvested onto P81 Unifilter plates with a wash buffer of 50 mM orthophosphoric acid.

[2] = biological target: SGK1 (Homo sapiens (Human), UniProt O00141); assay: SGK1 kinase selectivity assay
Description: SGK (5-20 mU diluted in 20 mM MOPS pH 7.5, 1 mM EDTA, 0.01% Brij35, 5% glycerol, 0.1% b-mercaptoethanol, 1 mg/ml BSA) is assayed against a modified Crosstide peptide […] in a final volume of 25.5 μl containing 8 mM MOPS pH 7.0, 0.2 mM EDTA, 30 μM substrate peptide, 10 mM magnesium acetate and 0.02 mM [33P-g-ATP] (50-1000 cpm/pmole) and incubated for 30 min at room temperature. Assays are stopped by addition of 5 μl of 0.5 M (3%) orthophosphoric acid and then harvested onto P81 Unifilter plates with a wash buffer of 50 mM orthophosphoric acid.

[3] = biological target: S6K1 (Homo sapiens (Human), UniProt P23443); assay: S6K1 kinase selectivity assay
Description: S6K1/P70 S6K (5-20 mU diluted in 20 mM MOPS pH 7.5, 1 mM EDTA, 0.01% Brij35, 5% glycerol, 0.1% b-mercaptoethanol, 1 mg/ml BSA) is assayed against substrate peptide ([…]) in a final volume of 25.5 μl containing 8 mM MOPS pH 7.0, 0.2 mM EDTA, 0.1 mM substrate peptide, 10 mM magnesium acetate and 0.02 mM [33P-g-ATP] (50-1000 cpm/pmole) and incubated for 30 min at room temperature. Assays are stopped by addition of 5 μl of 0.5 M (3%) orthophosphoric acid and then harvested onto P81 Unifilter plates with a wash buffer of 50 mM orthophosphoric acid.

[4] = biological target: MNK1 (Homo sapiens (Human), UniProt Q9BUB5); assay: MNK1 kinase selectivity assay
Description: 5-20 mU of MNK1 (diluted in 50 mM Tris (pH 7.5), 0.1 mM EGTA, 1 mg/ml BSA, 0.1%, b-Mercaptoethanol) is assayed against substrate peptide (eIF4E) in a final volume of 25.5p1 containing 50 mM Tris (pH 7.5), 0.1 mM EGTA, 0.1%, b-Mercaptoethanol, 0.5 mg/ml substrate peptide, 10 mM magnesium acetate and 0.05 mM [33P-g-ATP](500-1000 cpm/pmole) and incubated for 30 mins at room temperature. Assays are stopped by addition of 5p1 of 0.5M (3%) orthophosphoric acid. Assays are harvested onto P81 Unifilter plates using a wash buffer of 50 mM orthophosphoric acid.

[5] = system: CK2; assay: CK2 kinase selectivity assay
Description: CK2 (5-20 mU diluted in 20 mM Hepes pH7.5, 0.15 M NaCl, 0.1 mM EGTA, 0.1% Triton X-100, 5 mM DTT, 50% glycerol) is assayed against CKII peptide ([…]) in a final volume of 25.5 μl containing 20 mM Hepes pH 7.5, 0.15 M NaCl, 0.1 mM EDTA, 5 mM DTT, 0.1% Triton-X 100, CKII peptide (0.165 mM), 10 mM magnesium acetate and 0.005 mM [33P-g-ATP](500-1000 cpm/pmole) and incubated for 30 min at room temperature. Assays are stopped by addition of 5 μl of 0.5 M (3%) orthophosphoric acid and then harvested onto P81 Unifilter plates with a wash buffer of 50 mM orthophosphoric acid.

[6] = biological target: IKKb (Homo sapiens (Human), UniProt O14920); assay: IKKb kinase selectivity assay
Description: 5-20 mU of IKKb (diluted in 50 mM Tris (pH 7.5), 0.1 mM EGTA, 1 mg/ml BSA, 0.1%, b-Mercaptoethanol) is assayed against substrate peptide ([…]) in a final volume of […] containing 50 mM Tris (pH 7.5), 0.1 mM EGTA, 0.1%, b-Mercaptoethanol, 300 μM substrate peptide, 10 mM magnesium acetate and 0.005 mM [33P-g-ATP](500-1000 cpm/pmole) and incubated for 30 mins at room temperature. Assays are stopped by addition of 5 μl of 0.5M (3%) orthophosphoric acid. Assays are harvested onto P81 Unifilter plates using a wash buffer of 50 mM orthophosphoric acid.

[7] = biological target: TBK1 (Homo sapiens (Human), UniProt Q9UHD2); assay: TBK1 kinase selectivity assay
Description: TBK1 (DU12569) (5-20 mU diluted in 50 mM Tris pH 7.5, 0.1 mM EGTA, 1 mg/ml BSA) is assayed against a substrate peptide ([…]) in a final volume of 25.5 μl containing 50 mM Tris pH 7.5, 300 μM substrate peptide, 10 mM magnesium acetate and 0.05 mM [33P-g-ATP] (50-1000 cpm/pmole) and incubated for 30 min at room temperature. Assays are stopped by addition of 5 μl of 0.5 M (3%) orthophosphoric acid and then harvested onto P81 Unifilter plates with a wash buffer of 50 mM orthophosphoric acid.

[8] = biological target: PIM1 (Homo sapiens (Human), UniProt P11309); assay: PIM1 kinase selectivity assay
Description: PIM1 (5-20 mU diluted in 50 mM Tris pH 7.5, 0.1 mM EGTA, 0.1% b-mercaptoethanol, 1 mg/ml BSA) is assayed against a substrate peptide ([…]) in a final volume of 25.5 μl containing 50 mM Tris pH 7.5, 0.05% b-mercaptoethanol, 300 μM substrate peptide, 10 mM magnesium acetate and 0.02 mM [33P-g-ATP] (50-1000 cpm/pmole) and incubated for 30 min at room temperature. Assays are stopped by addition of 5 μl of 0.5 M (3%) orthophosphoric acid and then harvested onto P81 Unifilter plates with a wash buffer of 50 mM orthophosphoric acid.

[9] = biological target: ULK2 (Homo sapiens (Human), UniProt Q8IYT8); assay: ULK2 kinase selectivity assay
Chain of ULK2 (Q8IYT8 whole entry, species assumed): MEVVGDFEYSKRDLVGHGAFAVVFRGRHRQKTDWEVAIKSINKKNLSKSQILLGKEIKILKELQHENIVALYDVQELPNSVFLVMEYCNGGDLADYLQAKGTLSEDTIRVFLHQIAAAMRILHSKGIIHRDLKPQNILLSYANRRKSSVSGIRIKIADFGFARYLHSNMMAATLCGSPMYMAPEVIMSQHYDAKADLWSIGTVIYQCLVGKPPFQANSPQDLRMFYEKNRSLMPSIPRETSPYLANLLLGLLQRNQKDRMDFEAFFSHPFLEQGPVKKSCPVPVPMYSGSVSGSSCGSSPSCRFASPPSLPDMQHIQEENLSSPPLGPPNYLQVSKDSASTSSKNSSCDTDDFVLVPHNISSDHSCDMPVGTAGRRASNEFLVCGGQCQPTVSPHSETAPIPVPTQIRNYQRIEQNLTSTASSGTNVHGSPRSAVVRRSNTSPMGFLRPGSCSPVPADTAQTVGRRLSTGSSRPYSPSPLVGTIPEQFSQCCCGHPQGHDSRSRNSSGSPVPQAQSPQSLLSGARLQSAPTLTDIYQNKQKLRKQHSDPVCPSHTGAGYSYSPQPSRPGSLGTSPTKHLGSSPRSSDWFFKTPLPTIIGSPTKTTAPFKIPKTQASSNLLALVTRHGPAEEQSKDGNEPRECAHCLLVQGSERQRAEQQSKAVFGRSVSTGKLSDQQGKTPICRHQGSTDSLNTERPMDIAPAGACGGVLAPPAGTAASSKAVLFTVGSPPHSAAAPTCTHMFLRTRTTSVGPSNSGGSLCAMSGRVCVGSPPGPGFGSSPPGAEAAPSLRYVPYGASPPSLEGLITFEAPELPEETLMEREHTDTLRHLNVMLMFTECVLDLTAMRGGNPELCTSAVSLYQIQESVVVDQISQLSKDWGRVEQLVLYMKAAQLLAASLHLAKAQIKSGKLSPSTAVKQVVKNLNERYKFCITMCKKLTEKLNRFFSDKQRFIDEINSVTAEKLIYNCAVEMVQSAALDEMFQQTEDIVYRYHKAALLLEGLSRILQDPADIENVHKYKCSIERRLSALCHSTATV

Chain of IKKb (O14920 whole entry, species assumed): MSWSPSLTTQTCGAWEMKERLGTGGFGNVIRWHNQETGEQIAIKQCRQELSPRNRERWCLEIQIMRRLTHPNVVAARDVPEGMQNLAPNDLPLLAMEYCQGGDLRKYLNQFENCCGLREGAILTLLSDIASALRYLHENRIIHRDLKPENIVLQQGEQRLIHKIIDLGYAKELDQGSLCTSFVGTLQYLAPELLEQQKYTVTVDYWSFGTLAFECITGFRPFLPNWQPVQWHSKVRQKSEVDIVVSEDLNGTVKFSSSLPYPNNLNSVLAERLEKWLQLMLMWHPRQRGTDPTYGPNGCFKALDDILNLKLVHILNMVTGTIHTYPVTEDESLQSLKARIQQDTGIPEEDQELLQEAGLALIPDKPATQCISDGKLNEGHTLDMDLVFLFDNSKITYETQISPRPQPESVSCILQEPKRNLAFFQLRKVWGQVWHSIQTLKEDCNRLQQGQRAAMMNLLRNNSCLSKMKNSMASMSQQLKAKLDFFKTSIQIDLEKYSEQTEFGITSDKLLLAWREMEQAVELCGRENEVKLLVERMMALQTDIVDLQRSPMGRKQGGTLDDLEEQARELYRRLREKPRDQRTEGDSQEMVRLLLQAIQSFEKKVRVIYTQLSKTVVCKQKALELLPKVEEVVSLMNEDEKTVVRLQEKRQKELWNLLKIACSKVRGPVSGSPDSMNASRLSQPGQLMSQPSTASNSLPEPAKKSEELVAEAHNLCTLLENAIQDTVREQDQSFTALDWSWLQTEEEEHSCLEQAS
Chain of MNK1 (Q9BUB5 whole entry, species assumed): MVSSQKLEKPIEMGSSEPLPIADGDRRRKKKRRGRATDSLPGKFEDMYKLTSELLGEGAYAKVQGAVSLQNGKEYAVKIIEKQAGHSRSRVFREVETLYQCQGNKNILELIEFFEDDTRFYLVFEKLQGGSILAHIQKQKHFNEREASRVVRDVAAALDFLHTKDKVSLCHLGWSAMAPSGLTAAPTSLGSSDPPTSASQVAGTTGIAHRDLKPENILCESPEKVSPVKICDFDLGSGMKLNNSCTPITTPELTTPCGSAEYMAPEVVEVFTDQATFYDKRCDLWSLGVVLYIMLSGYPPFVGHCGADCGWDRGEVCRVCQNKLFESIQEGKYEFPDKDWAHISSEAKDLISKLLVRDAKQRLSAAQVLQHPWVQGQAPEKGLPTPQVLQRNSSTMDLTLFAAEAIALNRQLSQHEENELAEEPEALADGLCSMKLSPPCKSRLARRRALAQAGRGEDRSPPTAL
Chain of PIM1 (P11309 whole entry, species assumed): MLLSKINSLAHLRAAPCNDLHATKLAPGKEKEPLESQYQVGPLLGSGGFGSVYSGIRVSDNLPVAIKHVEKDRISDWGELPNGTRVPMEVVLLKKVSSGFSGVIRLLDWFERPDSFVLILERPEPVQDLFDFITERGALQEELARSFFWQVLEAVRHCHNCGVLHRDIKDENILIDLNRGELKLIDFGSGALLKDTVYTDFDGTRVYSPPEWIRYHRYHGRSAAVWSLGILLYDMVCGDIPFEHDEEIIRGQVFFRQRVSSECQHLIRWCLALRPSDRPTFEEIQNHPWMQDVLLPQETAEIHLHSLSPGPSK
Chain of SGK1 (O00141 whole entry, species assumed): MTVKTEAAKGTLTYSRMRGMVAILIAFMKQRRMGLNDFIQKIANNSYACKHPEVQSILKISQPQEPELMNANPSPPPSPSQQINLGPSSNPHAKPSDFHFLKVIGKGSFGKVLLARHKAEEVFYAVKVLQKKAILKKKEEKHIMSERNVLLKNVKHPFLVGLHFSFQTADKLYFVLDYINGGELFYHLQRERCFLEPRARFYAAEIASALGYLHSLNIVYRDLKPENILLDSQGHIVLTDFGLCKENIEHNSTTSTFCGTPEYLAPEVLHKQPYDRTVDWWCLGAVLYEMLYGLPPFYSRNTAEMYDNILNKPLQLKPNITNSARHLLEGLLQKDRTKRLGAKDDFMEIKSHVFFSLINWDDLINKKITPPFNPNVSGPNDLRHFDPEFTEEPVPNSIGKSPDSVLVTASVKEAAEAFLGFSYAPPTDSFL
Chain of S6K1 (P23443 whole entry, species assumed): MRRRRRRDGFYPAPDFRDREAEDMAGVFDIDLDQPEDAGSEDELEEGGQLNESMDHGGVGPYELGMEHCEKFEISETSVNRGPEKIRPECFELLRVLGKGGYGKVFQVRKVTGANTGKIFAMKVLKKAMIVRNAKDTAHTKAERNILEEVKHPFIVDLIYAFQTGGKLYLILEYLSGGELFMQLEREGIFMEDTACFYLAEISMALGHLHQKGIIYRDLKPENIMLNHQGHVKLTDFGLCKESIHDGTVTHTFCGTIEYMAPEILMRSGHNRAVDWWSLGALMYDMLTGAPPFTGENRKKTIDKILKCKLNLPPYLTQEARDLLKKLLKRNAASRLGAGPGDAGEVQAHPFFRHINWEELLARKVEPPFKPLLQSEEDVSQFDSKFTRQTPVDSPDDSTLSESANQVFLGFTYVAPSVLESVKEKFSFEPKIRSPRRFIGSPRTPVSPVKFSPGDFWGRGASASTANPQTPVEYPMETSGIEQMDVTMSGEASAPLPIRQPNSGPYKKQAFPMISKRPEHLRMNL
Chain of RSK1 (Q15418 whole entry, species assumed): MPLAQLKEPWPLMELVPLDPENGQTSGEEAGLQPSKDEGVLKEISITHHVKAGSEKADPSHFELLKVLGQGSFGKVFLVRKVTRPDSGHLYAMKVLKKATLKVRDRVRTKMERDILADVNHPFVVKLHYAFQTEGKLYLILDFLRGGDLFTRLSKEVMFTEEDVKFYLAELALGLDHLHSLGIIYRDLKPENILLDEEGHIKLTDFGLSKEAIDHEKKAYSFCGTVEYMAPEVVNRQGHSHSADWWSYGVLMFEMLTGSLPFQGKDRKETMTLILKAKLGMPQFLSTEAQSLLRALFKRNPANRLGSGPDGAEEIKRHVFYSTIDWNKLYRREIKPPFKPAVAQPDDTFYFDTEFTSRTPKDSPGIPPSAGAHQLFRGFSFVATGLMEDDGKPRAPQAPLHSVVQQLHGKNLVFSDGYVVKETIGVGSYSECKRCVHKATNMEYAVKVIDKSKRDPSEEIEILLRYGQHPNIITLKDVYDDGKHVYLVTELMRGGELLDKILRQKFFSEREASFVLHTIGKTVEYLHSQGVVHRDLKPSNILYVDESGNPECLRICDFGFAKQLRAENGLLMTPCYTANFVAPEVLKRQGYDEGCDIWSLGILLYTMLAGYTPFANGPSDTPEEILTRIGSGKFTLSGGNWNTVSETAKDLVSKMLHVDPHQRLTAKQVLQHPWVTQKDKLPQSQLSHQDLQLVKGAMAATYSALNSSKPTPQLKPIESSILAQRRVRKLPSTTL
Chain of TBK1 (Q9UHD2 whole entry, species assumed): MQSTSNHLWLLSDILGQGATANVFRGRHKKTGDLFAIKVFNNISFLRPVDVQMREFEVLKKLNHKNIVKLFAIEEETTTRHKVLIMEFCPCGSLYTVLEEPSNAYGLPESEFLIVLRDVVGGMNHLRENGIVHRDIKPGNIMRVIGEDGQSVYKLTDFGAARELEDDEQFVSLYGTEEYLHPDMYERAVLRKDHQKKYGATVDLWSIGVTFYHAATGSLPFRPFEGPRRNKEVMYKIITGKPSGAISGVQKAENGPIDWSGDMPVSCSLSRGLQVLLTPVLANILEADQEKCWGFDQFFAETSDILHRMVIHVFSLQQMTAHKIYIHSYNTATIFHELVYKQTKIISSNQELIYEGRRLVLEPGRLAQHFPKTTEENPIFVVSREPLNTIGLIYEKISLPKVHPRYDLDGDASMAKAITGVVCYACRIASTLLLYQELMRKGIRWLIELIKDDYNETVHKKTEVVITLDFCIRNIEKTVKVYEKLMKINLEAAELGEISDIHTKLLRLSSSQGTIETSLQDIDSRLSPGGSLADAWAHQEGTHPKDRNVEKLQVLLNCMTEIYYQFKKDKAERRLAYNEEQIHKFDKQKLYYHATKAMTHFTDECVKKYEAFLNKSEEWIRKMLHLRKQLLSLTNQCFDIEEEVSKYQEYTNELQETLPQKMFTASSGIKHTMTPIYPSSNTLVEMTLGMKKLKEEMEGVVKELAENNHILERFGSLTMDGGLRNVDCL

SMILES | percentage inhibition of RSK1 [1] | percentage inhibition of SGK1 [2] | percentage inhibition of S6K1 [3] | percentage inhibition of MNK1 [4] | percentage inhibition of CK2 [5] | percentage inhibition of IKKb [6] | percentage inhibition of TBK1 [7] | percentage inhibition of PIM1 [8] | percentage inhibition of ULK2 [9]
c1cc2[nH]nc3c2c(n1)N(C1CCC1)CCC3 [Example 22, 6-cyclobutyl-6,7,8,9-tetrahydro-2H-1,2,5,6-tetraazabenzo[cd]azulene] | 0 percentage | 13 percentage | 0 percentage | 0 percentage | 0 percentage | 2 percentage | 0 percentage | 0 percentage | 12 percentage
c1cc2[nH]nc3c2c(n1)N(C1CCCC1)CCC3 [Example 23, 6-cyclopentyl-6,7,8,9-tetrahydro-2H-1,2,5,6-tetraazabenzo[cd]azulene] | 0 percentage | 0 percentage | 0 percentage | 0 percentage | – | 0 percentage | 0 percentage | 0 percentage | 1 percentage
c1cc2[nH]nc3c2c(n1)N(C1CCOCC1)CCC3 [Example 29, 6-(tetrahydro-2H-pyran-4-yl)-6,7,8,9-tetrahydro-2H-1,2,5,6-tetraazabenzo[cd]azulene] | 10 percentage | 18 percentage | 2 percentage | 0 percentage | 0 percentage | 0 percentage | 0 percentage | 0 percentage | 7 percentage
CN1CCC(N2Cc3ccccc3-c3n[nH]c4ccnc2c34)CC1 [Example 55] | 41 percentage | 10 percentage | 17 percentage | 50 percentage | 11 percentage | 6 percentage | 5 percentage | 26 percentage | 31 percentage
CC(C)n1ncc2c1CN(C1CCN(C)CC1)c1nccc3[nH]nc-2c13 [Example 68] | 69 percentage | 23 percentage | 0 percentage | 1 percentage | 4 percentage | 4 percentage | 5 percentage | 77 percentage | 10 percentage

Source: patent publication US10918645B2 (LIFEARC, priority 2016, dated 2021)
